In PubChem BioAssay AID651650 (Sanford-Burnham Center for Chemical Genomics, 2012):
Activity calls are given as the source filed them.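 How the source made its calls: active means mean IC50 below 20 µM in each of the two panels, so potent in both; inactive means the rest.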

biological target: Neuropilin-1 (Homo sapiens) (UniProt O14786); assay: blockers of CendR peptide binding to NRP-1 – biochemical, FP and AlphaScreen panel, dose response (AID 651650); conditions: NRP-1 b1b2 / RPARPAR peptide binding, FP or AlphaScreen; FP, mean of runs
Sequence (O14786 whole entry, looked up): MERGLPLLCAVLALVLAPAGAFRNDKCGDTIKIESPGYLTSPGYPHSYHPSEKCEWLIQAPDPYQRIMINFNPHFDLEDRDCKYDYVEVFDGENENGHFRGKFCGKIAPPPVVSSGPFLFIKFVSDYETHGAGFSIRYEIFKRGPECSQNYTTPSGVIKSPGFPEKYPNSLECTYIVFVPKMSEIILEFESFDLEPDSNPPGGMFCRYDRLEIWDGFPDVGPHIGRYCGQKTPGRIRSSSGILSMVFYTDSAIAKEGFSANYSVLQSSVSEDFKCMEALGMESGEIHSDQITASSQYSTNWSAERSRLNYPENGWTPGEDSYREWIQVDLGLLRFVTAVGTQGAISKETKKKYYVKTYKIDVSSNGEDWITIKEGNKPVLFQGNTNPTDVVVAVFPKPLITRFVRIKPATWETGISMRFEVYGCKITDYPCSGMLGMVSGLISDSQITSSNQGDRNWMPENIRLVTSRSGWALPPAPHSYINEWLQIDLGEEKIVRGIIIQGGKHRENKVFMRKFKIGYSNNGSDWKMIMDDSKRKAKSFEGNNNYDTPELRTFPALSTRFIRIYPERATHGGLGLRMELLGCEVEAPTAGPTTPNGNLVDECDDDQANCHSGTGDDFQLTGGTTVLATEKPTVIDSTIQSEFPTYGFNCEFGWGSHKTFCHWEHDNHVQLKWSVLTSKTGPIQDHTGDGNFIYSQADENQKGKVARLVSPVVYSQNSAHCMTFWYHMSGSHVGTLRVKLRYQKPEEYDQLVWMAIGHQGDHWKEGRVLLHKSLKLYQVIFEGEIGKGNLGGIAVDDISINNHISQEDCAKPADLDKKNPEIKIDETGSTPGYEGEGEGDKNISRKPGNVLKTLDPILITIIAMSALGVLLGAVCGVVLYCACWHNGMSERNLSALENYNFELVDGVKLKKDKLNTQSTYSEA

Structure (SMILES) | IC50
COc1cc(OC)nc(NC(=O)COC(=O)c2cccc(Cl)c2)n1 | > 95 µM (inactive)
Cn1cccc1C1Nc2ccccc2NC2=C1C(=O)CC(C)(C)C2 (stereo not given) | > 95 µM (inactive)
c1cc(CNc2ccc3c(c2)OCO3)ccn1 | > 95 µM (inactive)
CCOc1ccc(S(=O)(=O)N2CCN(C(=O)c3sccc3C)CC2)cc1 | > 95 µM (inactive)
COC(=O)Cc1ccc(NC(=S)NCCCO)cc1 | > 95 µM (inactive)
O=C(COc1cc(Cl)c(Cl)cc1Cl)Nc1ccc([N+](=O)[O-])cc1Cl | > 95 µM (inactive)
C=C1C[C@@]23CCC4[C@@](C)(CCC[C@@]4(C)C(=O)O)C2CC[C@]1(O)C3 (stereo not given in full) | > 95 µM (inactive)
O=C(c1ccco1)N1CCN(C(=O)c2ccccc2OC(=O)C23CC4CC(CC(C4)C2)C3)CC1 | > 95 µM (inactive)
CCC1=C(OC(=O)N(CC)CC)N2C(=O)OC(=NCC3CC3)[C@]2(Cc2ccccc2)[C@H]2C1=CC[C@H]1C(=O)N(C)C(=O)[C@H]12 | > 95 µM (inactive)
CCOc1ccc(C2CC(c3ccc(CC)cc3)n3nc(N)nc3N2)cc1 (stereo not given) | > 95 µM (inactive)
CNC(=O)Nc1ccccc1C(=O)NCc1ccccc1 | > 95 µM (inactive)
Cc1cc(=O)n2nc(N3CCCC(C(=O)N4CCOCC4)C3)sc2n1 (stereo not given) | > 95 µM (inactive)
CC(C)Cc1ccc(C(C)C(=O)Nc2ccc(O)cc2)cc1 (stereo not given) | > 95 µM (inactive)
CCOC(=O)/C=C/COc1ccccc1[N+](=O)[O-] | > 95 µM (inactive)
COc1ccc(C(=O)N2CCC(C(=O)NCc3ccccn3)CC2)cc1 | > 95 µM (inactive)
O=C(CSc1nc2ccccc2n1Cc1ccccc1Cl)N/N=C/c1ccccc1C(=O)O | > 95 µM (inactive)
Cc1ccc(C(=O)OCC(=O)c2ccc(Cl)s2)s1 | > 95 µM (inactive)
CCOC(=O)C1CCN(Cc2ccc3ccccc3c2)CC1 | > 95 µM (inactive)
CC(C)Oc1ccc(F)cc1-c1cc(C(=O)NCc2ccc(F)cc2)[nH]n1 | > 95 µM (inactive)
CC1(C)S[C@@H]2[C@H](NC(=O)COc3ccccc3)C(=O)N2C1C(=O)OCc1ccccc1 (stereo not given in full) | > 95 µM (inactive)
CC(=O)OC1CC[C@]2(C#N)[C@H]3CC[C@]4(C)[C@H](C5C=CC(=O)O5)CCC4(O)C3CCC2(O)C1 (stereo not given in full) | > 95 µM (inactive)
CCCCOc1ccc(C(=O)N/C(=C/C=C/c2ccccc2)C(=O)NCCCO)cc1 | > 95 µM (inactive)

same assay, conditions: NRP-1 b1b2 / RPARPAR peptide binding, FP or AlphaScreen; FP, run 1; individual panel run IC50

Structure (SMILES) | IC50
CCn1c(SCC(=O)c2ccccc2)nnc1-c1cccs1 | > 95 µM
CCN(c1ccccc1)S(=O)(=O)c1ccc(C(=O)N(CCCN(C)C)c2nc3cc4c(cc3s2)OCO4)cc1 | > 95 µM
O=C(/C=C/c1ccco1)N/C(=C\c1ccccc1)C(=O)NCCc1nc2ccccc2[nH]1 | > 95 µM
Cc1ccccc1/C=C/c1nc2ccccc2c(=O)n1CCc1ccccc1 | > 95 µM
Cc1nn(-c2ccccc2)c(C)c1C(=O)OCC(=O)Nc1ccccc1 | > 95 µM
CCOC(=O)Cc1csc(NC(=O)CSc2ncnc3c2cnn3-c2ccccc2Cl)n1 | > 95 µM
COC(=O)N[C@@H]1C[C@H]2[C@@H]3CC[C@H]4C[C@@H](OC)CC[C@]4(C)[C@H]3CC[C@]12C | > 95 µM
Cc1ccc(NC(=S)Nc2cccc3ccccc23)cc1 | > 95 µM
Cc1cccc(NC(=O)c2ccc(OCc3c(C)noc3C)cc2)c1 | > 95 µM
O=C(NCCCN1CCCCCC1)c1ccc(CS(=O)(=O)Cc2ccccc2F)o1 | > 95 µM
CC(Oc1ccccc1)C(=O)NC1=NCCS1 (stereo not given) | > 95 µM
COc1ccc(C(=O)COC(=O)C(CCSC)NS(=O)(=O)c2ccc(Cl)cc2)cc1 (stereo not given) | > 95 µM
CCN(CCCNC(=O)CNC(=O)c1nn(-c2ccc(OC)cc2OC)c(=O)c2ccccc12)c1cccc(C)c1 | > 95 µM
CC(C)(C)C(=O)COC(=O)c1cc(-c2ccncc2)nc2ccccc12 | > 95 µM
C[C@@H](NC(=O)c1nc[nH]c1C(=O)NCc1ccccc1)c1ccccc1 | > 95 µM
O=C(CSc1nc2ccc(Cl)cc2[nH]1)NCCc1ccccc1 | > 95 µM
O=c1ccsn1Cc1ccccc1 | > 95 µM
CCCN=C1N/C(=C\c2ccco2)C(=O)N1c1ccccc1 | > 95 µM
CCOc1cc(C(=O)NCCN2CCOCC2)cc(OCC)c1OCC | > 95 µM
COc1ccc(CN2C(=O)c3ccccc3C2=O)cc1C(=O)Nc1ccccc1N1CCOCC1 | > 95 µM
NC(=O)C(c1ccc(Cl)cc1Cl)c1ncc(C(F)(F)F)cc1Cl (stereo not given) | > 95 µM
Cc1ccc(NC(=O)COc2ncnc3c(Cl)cc(Cl)cc23)cc1[N+](=O)[O-] | > 95 µM

Structure (SMILES) | IC50
COc1cc(OC)nc(NC(=O)COC(=O)c2cccc(Cl)c2)n1 | > 95 µM
Cn1cccc1C1Nc2ccccc2NC2=C1C(=O)CC(C)(C)C2 (stereo not given) | > 95 µM
c1cc(CNc2ccc3c(c2)OCO3)ccn1 | > 95 µM
CCOc1ccc(S(=O)(=O)N2CCN(C(=O)c3sccc3C)CC2)cc1 | > 95 µM
COC(=O)Cc1ccc(NC(=S)NCCCO)cc1 | > 95 µM
O=C(COc1cc(Cl)c(Cl)cc1Cl)Nc1ccc([N+](=O)[O-])cc1Cl | > 95 µM
C=C1C[C@@]23CCC4[C@@](C)(CCC[C@@]4(C)C(=O)O)C2CC[C@]1(O)C3 (stereo not given in full) | > 95 µM
O=C(c1ccco1)N1CCN(C(=O)c2ccccc2OC(=O)C23CC4CC(CC(C4)C2)C3)CC1 | > 95 µM
CCC1=C(OC(=O)N(CC)CC)N2C(=O)OC(=NCC3CC3)[C@]2(Cc2ccccc2)[C@H]2C1=CC[C@H]1C(=O)N(C)C(=O)[C@H]12 | > 95 µM
CCOc1ccc(C2CC(c3ccc(CC)cc3)n3nc(N)nc3N2)cc1 (stereo not given) | > 95 µM
CNC(=O)Nc1ccccc1C(=O)NCc1ccccc1 | > 95 µM
Cc1cc(=O)n2nc(N3CCCC(C(=O)N4CCOCC4)C3)sc2n1 (stereo not given) | > 95 µM
CC(C)Cc1ccc(C(C)C(=O)Nc2ccc(O)cc2)cc1 (stereo not given) | > 95 µM
CCOC(=O)/C=C/COc1ccccc1[N+](=O)[O-] | > 95 µM
COc1ccc(C(=O)N2CCC(C(=O)NCc3ccccn3)CC2)cc1 | > 95 µM
O=C(CSc1nc2ccccc2n1Cc1ccccc1Cl)N/N=C/c1ccccc1C(=O)O | > 95 µM
Cc1ccc(C(=O)OCC(=O)c2ccc(Cl)s2)s1 | > 95 µM
CCOC(=O)C1CCN(Cc2ccc3ccccc3c2)CC1 | > 95 µM
CC(C)Oc1ccc(F)cc1-c1cc(C(=O)NCc2ccc(F)cc2)[nH]n1 | > 95 µM
CC1(C)S[C@@H]2[C@H](NC(=O)COc3ccccc3)C(=O)N2C1C(=O)OCc1ccccc1 (stereo not given in full) | > 95 µM
CC(=O)OC1CC[C@]2(C#N)[C@H]3CC[C@]4(C)[C@H](C5C=CC(=O)O5)CCC4(O)C3CCC2(O)C1 (stereo not given in full) | > 95 µM
CCCCOc1ccc(C(=O)N/C(=C/C=C/c2ccccc2)C(=O)NCCCO)cc1 | > 95 µM

same assay, conditions: NRP-1 b1b2 / RPARPAR peptide binding, FP or AlphaScreen; FP, run 2; individual panel run IC50

Structure (SMILES) | IC50
CCn1c(SCC(=O)c2ccccc2)nnc1-c1cccs1 | > 95 µM
CCN(c1ccccc1)S(=O)(=O)c1ccc(C(=O)N(CCCN(C)C)c2nc3cc4c(cc3s2)OCO4)cc1 | > 95 µM
O=C(/C=C/c1ccco1)N/C(=C\c1ccccc1)C(=O)NCCc1nc2ccccc2[nH]1 | > 95 µM
Cc1ccccc1/C=C/c1nc2ccccc2c(=O)n1CCc1ccccc1 | > 95 µM
Cc1nn(-c2ccccc2)c(C)c1C(=O)OCC(=O)Nc1ccccc1 | > 95 µM
CCOC(=O)Cc1csc(NC(=O)CSc2ncnc3c2cnn3-c2ccccc2Cl)n1 | > 95 µM
COC(=O)N[C@@H]1C[C@H]2[C@@H]3CC[C@H]4C[C@@H](OC)CC[C@]4(C)[C@H]3CC[C@]12C | > 95 µM
Cc1ccc(NC(=S)Nc2cccc3ccccc23)cc1 | > 95 µM
Cc1cccc(NC(=O)c2ccc(OCc3c(C)noc3C)cc2)c1 | > 95 µM
O=C(NCCCN1CCCCCC1)c1ccc(CS(=O)(=O)Cc2ccccc2F)o1 | > 95 µM
CC(Oc1ccccc1)C(=O)NC1=NCCS1 (stereo not given) | > 95 µM
COc1ccc(C(=O)COC(=O)C(CCSC)NS(=O)(=O)c2ccc(Cl)cc2)cc1 (stereo not given) | > 95 µM
CCN(CCCNC(=O)CNC(=O)c1nn(-c2ccc(OC)cc2OC)c(=O)c2ccccc12)c1cccc(C)c1 | > 95 µM
CC(C)(C)C(=O)COC(=O)c1cc(-c2ccncc2)nc2ccccc12 | 40.5 µM
C[C@@H](NC(=O)c1nc[nH]c1C(=O)NCc1ccccc1)c1ccccc1 | > 95 µM
O=C(CSc1nc2ccc(Cl)cc2[nH]1)NCCc1ccccc1 | > 95 µM
O=c1ccsn1Cc1ccccc1 | > 95 µM
CCCN=C1N/C(=C\c2ccco2)C(=O)N1c1ccccc1 | > 95 µM
CCOc1cc(C(=O)NCCN2CCOCC2)cc(OCC)c1OCC | > 95 µM
COc1ccc(CN2C(=O)c3ccccc3C2=O)cc1C(=O)Nc1ccccc1N1CCOCC1 | > 95 µM
NC(=O)C(c1ccc(Cl)cc1Cl)c1ncc(C(F)(F)F)cc1Cl (stereo not given) | > 95 µM
Cc1ccc(NC(=O)COc2ncnc3c(Cl)cc(Cl)cc23)cc1[N+](=O)[O-] | > 95 µM

Structure (SMILES) | IC50
COc1cc(OC)nc(NC(=O)COC(=O)c2cccc(Cl)c2)n1 | > 95 µM
Cn1cccc1C1Nc2ccccc2NC2=C1C(=O)CC(C)(C)C2 (stereo not given) | > 95 µM
c1cc(CNc2ccc3c(c2)OCO3)ccn1 | > 95 µM
CCOc1ccc(S(=O)(=O)N2CCN(C(=O)c3sccc3C)CC2)cc1 | > 95 µM
COC(=O)Cc1ccc(NC(=S)NCCCO)cc1 | > 95 µM
O=C(COc1cc(Cl)c(Cl)cc1Cl)Nc1ccc([N+](=O)[O-])cc1Cl | > 95 µM
C=C1C[C@@]23CCC4[C@@](C)(CCC[C@@]4(C)C(=O)O)C2CC[C@]1(O)C3 (stereo not given in full) | > 95 µM
O=C(c1ccco1)N1CCN(C(=O)c2ccccc2OC(=O)C23CC4CC(CC(C4)C2)C3)CC1 | > 95 µM
CCC1=C(OC(=O)N(CC)CC)N2C(=O)OC(=NCC3CC3)[C@]2(Cc2ccccc2)[C@H]2C1=CC[C@H]1C(=O)N(C)C(=O)[C@H]12 | > 95 µM
CCOc1ccc(C2CC(c3ccc(CC)cc3)n3nc(N)nc3N2)cc1 (stereo not given) | > 95 µM
CNC(=O)Nc1ccccc1C(=O)NCc1ccccc1 | > 95 µM
Cc1cc(=O)n2nc(N3CCCC(C(=O)N4CCOCC4)C3)sc2n1 (stereo not given) | > 95 µM
CC(C)Cc1ccc(C(C)C(=O)Nc2ccc(O)cc2)cc1 (stereo not given) | > 95 µM
CCOC(=O)/C=C/COc1ccccc1[N+](=O)[O-] | > 95 µM
COc1ccc(C(=O)N2CCC(C(=O)NCc3ccccn3)CC2)cc1 | > 95 µM
O=C(CSc1nc2ccccc2n1Cc1ccccc1Cl)N/N=C/c1ccccc1C(=O)O | > 95 µM
Cc1ccc(C(=O)OCC(=O)c2ccc(Cl)s2)s1 | > 95 µM
CCOC(=O)C1CCN(Cc2ccc3ccccc3c2)CC1 | > 95 µM
CC(C)Oc1ccc(F)cc1-c1cc(C(=O)NCc2ccc(F)cc2)[nH]n1 | > 95 µM
CC1(C)S[C@@H]2[C@H](NC(=O)COc3ccccc3)C(=O)N2C1C(=O)OCc1ccccc1 (stereo not given in full) | > 95 µM
CC(=O)OC1CC[C@]2(C#N)[C@H]3CC[C@]4(C)[C@H](C5C=CC(=O)O5)CCC4(O)C3CCC2(O)C1 (stereo not given in full) | > 95 µM
CCCCOc1ccc(C(=O)N/C(=C/C=C/c2ccccc2)C(=O)NCCCO)cc1 | > 95 µM
